Measured values taken from patent publication US8859535B2, “Hydroxy substituted isoquinolinone derivatives” (Novartis AG, priority 2011, dated 2014).

Biological target: T1, human MDM2 protein (amino acids 2-188) (Homo sapiens, UniProt Q00987)
T1 construct: human MDM2 protein (amino acids 2-188); made in house
Experiment: p53-MDM2 TR-FRET assay (p53-MDM2 Assay 1)
Type: binding
Conditions: 1.25 nM MDM2-biotinylated, 10 nM Cy5-p53 peptide; read-out: IC50 (μM) of p53-Hdm2 inhibition (TR-FRET) Assay 1
Protocol: Time Resolved Fluorescence Energy Transfer (TR-FRET) Assay
The inhibition of p53-MDM2 and p53-MDM4 interactions is measured by time resolved fluorescence energy transfer (TR-FRET). Fluorescence energy transfer (or Foerster resonance energy transfer) describes an energy transfer between donor and acceptor fluorescent molecules. For this assay, human MDM2 protein (amino acids 2-188) and human MDM4 protein (amino acids 2-185), tagged with a C-terminal biotin moiety, are used in combination with a Europium labeled streptavidin (Perkin Elmer, Inc., Waltham, Mass., USA) serving as the donor fluorophore. The p53 derived, Cy5 labeled peptide Cy5-TFSDLWKLL (p53 aa18-26) is the energy acceptor. Upon excitation of the donor molecule at 340 nm, binding interaction between MDM2 or MDM4 and the p53 peptide induces energy transfer and enhanced response at the acceptor emission wavelength at 665 nm. Disruption of the formation of the p53-MDM2 or p53-MDM4 complex due to an inhibitor molecule binding to the p53 binding site of MDM2 or MDM4 results in increased donor emission at 620 nm. The ratiometric FRET assay readout is calculated from the raw data of the two distinct fluorescence signals measured in time resolved mode (fluorescence 665 nm/fluorescence 620 nm×1000).
After addition of 1.25 nM MDM2-biotinylated or 2.5 nM MDM4-biotinylated (internal preparations), and 0.625 nM Europium labeled streptavidin (Perkin Elmer), the solution is pre-incubated for 15 minutes at room temperature, then 10 nM Cy5-p53 peptide (internal preparation) is added before an incubation at room temperature for 15 minutes prior to reading the plate. For measurement of samples, a Victor II microplate reader (Perkin Elmer) is used with the following settings: Excitation 340 nm, Emission Donor 620 nm and Emission Acceptor 665 nm. IC50 values are calculated by curve fitting using XLfit. If not specified, reagents are purchased from Sigma-Aldrich Chemie GmBH, Buchs, Switzerland.
This assay was used to evaluate compounds displaying inhibition of p53-MDM2 interaction and p53-MDM4 interaction at IC50s of 0.005 to 50 μM (p53-MDM2 Assay 1 and p53-MDM4 Assay 1, respectively). For selected compounds displaying IC50s between […] on MDM2, a slightly modified assay is used with the following adaptations: 0.1 nM MDM2, 0.1 nM Europium labeled streptavidin and Tecan genios Pro is used as a microplate reader for the fluorescence measurements (p53-MDM2 Assay 2).

T1 sequence (Q00987 2-188): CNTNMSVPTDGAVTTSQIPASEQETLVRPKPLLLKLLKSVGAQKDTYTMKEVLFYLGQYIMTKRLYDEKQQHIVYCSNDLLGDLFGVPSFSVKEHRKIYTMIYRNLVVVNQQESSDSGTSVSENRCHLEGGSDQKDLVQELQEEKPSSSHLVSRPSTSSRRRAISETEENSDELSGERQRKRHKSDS

Compound | IC50
COc1cc2c(cc1OC(C)C)[C@H](c1ccc(Cl)cc1)N(c1ccc([C@](C)(O)C34CC5CC(CC(C5)C3)C4)cc1)C(=O)C2 (single isomer, unassigned) [Example 143] | 2.31 µM
COc1ccc(C(O)(CO)c2ccc(N3C(=O)Cc4cc(OC)c(OC(C)C)cc4[C@@H]3c3ccc(Cl)cc3)cc2)cc1 (stereo partly drawn) [Example 44, (S)-1-(4-Chloro-phenyl)-2-{4-[1,2-dihydroxy-1-(4-methoxy-phenyl)-ethyl]-phenyl}-7-isopropoxy-6-methoxy-1,4-dihydro-2H-isoquinolin-3-one] | 0.0982 µM
COc1cc2c(cc1OC(C)C)[C@H](c1ccc(Cl)cc1)N(c1ccc(C(C)(O)C3C4CC5CC(C4)CC3C5)cc1)C(=O)C2 (stereo partly drawn) [Example 144, (S)-2-[4-(1-Adamantan-2-yl-1-hydroxy-ethyl)-phenyl]-1-(4-chloro-phenyl)-7-isopropoxy-6-methoxy-1,4-dihydro-2H-isoquinolin-3-one] | 0.123 µM
COc1cc2c(cc1OC(C)C)[C@H](c1ccc(Cl)cc1)N(c1ccc(C3(O)CN(C(=O)N(C)C)C3)cc1)C(=O)C2 [Example 59, 3-{4-[(S)-1-(4-Chloro-phenyl)-7-isopropoxy-6-methoxy-3-oxo-3,4-dihydro-1H-isoquinolin-2-yl]-phenyl}-3-hydroxy-azetidine-1-carboxylic acid dimethylamide] | 0.167 µM
COC(=O)N1CC(O)(c2ccc(N3C(=O)Cc4cc(OC)c(OC(C)C)cc4[C@@H]3c3ccc(Cl)cc3)cc2)C1 [Example 58, 3-{4-[(S)-1-(4-Chloro-phenyl)-7-isopropoxy-6-methoxy-3-oxo-3,4-dihydro-1H-isoquinolin-2-yl]-phenyl}-3-hydroxy-azetidine-1-carboxylic acid methyl ester] | 0.205 µM
CCC(C)(O)c1ccc(N2C(=O)Cc3cc(OC)c(OC(C)C)cc3[C@@H]2c2ccc(Cl)cc2)cn1 (stereo partly drawn) [Example 9, (S)-1-(4-Chloro-phenyl)-2-[6-(1-hydroxy-1-methyl-propyl)-pyridin-3-yl]-7-isopropoxy-6-methoxy-1,4-dihydro-2H-isoquinolin-3-one] | 0.459 µM
CCC(C)(O)c1ccc(N2C(=O)Cc3cc(OC)c(OC(C)C)cc3[C@@H]2c2ccc(Cl)cc2)nc1 (stereo partly drawn) [Example 10, (S)-1-(4-Chloro-phenyl)-2-[5-(1-hydroxy-1-methyl-propyl)-pyridin-2-yl]-7-isopropoxy-6-methoxy-1,4-dihydro-2H-isoquinolin-3-one] | 0.247 µM
COc1cc2c(cc1OC(C)C)[C@H](c1ccc(Cl)cc1)N(c1ccc(C(C)(O)CCO)cc1)C(=O)C2 (stereo partly drawn) [Example 41, (S)-1-(4-Chloro-phenyl)-2-[4-(1,3-dihydroxy-1-methyl-propyl)-phenyl]-7-isopropoxy-6-methoxy-1,4-dihydro-2H-isoquinolin-3-one] | 0.247 µM
COc1cc2c(cc1OC(C)C)[C@H](c1ccc(Cl)cc1)N(c1ccc(C3(O)CNC3)cc1)C(=O)C2 [Example 56, (S)-1-(4-Chloro-phenyl)-2-[4-(3-hydroxy-azetidin-3-yl)-phenyl]-7-isopropoxy-6-methoxy-1,4-dihydro-2H-isoquinolin-3-one] | 0.811 µM
COc1cc2c(cc1OC(C)C)[C@H](c1ccc(Cl)cc1)N(c1ccc(C3(O)CN(C(=O)C4CC4)C3)cc1)C(=O)C2 [Example 61, (S)-1-(4-Chloro-phenyl)-2-[4-(1-cyclopropanecarbonyl-3-hydroxy-azetidin-3-yl)-phenyl]-7-isopropoxy-6-methoxy-1,4-dihydro-2H-isoquinolin-3-one] | 0.156 µM
COc1cc2c(cc1OC(C)C)[C@H](c1ccc(Cl)cc1)N(c1ccc(C(C)(O)C34CC5CC(CC(C5)C3)C4)cc1)C(=O)C2 (stereo partly drawn) [Example 141, (S)-2-[4-(1-Adamantan-1-yl-1-hydroxy-ethyl)-phenyl]-1-(4-chloro-phenyl)-7-isopropoxy-6-methoxy-1,4-dihydro-2H-isoquinolin-3-one] | 0.0251 µM
COc1cc2c(cc1OC(C)C)[C@H](c1ccc(Cl)cc1)N(c1ccc([C@](C)(O)C3CCC(F)(F)CC3)cc1)C(=O)C2 (single isomer, unassigned) [Example 46] | 0.422 µM
